According to patent publication US20260226065A1, “SUBSTITUTED BENZENE COMPOUND” (DAIICHI SANKYO COMPANY, LIMITED, priority 2023, published 2026):

Molecular target: T1, NLRP3 inflammasome (Homo sapiens, UniProt Q96P20)
T1 construct: endogenous in cells; host or cells: THP-1 (human monocyte-derived), PMA-differentiated, Nigericin-stimulated
Assay: In vitro IL-1β production test (PMA-differentiated THP-1 cells, Nigericin stimulation, AlphaLISA)
Format: cell-based
Conditions: inhibition of IL-1β production; THP-1 cells differentiated with 200 nM PMA; 0.015 mM Nigericin; 2 hours
Description: Human monocyte-derived THP-1 cells were cultured for one day in 10% bovine serum-containing RPMI-1640 medium (Thermo #A10491-01) supplemented with 200 nM phorbol 12-myristate 13-acetate (PMA, Sigma #P8139) to induce differentiation.
NLRP3 inflammasome was induced by replacing the culture medium with bovine serum-free RPMI-1640 medium supplemented with 0.015 mM Nigericin (Sigma #SML1779) and the test compound of known concentrations.
After 2 hours, the culture medium supernatant was collected and the IL-1β protein concentration was measured using the AlphaLISA (registered trademark) assay (PerkinElmer #AL220C).
The IL-1β concentration without the addition of the test compound and with Nigericin stimulation was set as 0% inhibitory activity, and the IL-1β concentration without Nigericin stimulation was set as 100% inhibitory activity, and the inhibition rate (% inhibition) of the test compound at each added concentration was calculated.
The % inhibition value was subjected to sigmoid fitting using a logistic regression model to calculate the 50% inhibitory concentration (IC50 value).

T1 sequence (Q96P20 whole entry): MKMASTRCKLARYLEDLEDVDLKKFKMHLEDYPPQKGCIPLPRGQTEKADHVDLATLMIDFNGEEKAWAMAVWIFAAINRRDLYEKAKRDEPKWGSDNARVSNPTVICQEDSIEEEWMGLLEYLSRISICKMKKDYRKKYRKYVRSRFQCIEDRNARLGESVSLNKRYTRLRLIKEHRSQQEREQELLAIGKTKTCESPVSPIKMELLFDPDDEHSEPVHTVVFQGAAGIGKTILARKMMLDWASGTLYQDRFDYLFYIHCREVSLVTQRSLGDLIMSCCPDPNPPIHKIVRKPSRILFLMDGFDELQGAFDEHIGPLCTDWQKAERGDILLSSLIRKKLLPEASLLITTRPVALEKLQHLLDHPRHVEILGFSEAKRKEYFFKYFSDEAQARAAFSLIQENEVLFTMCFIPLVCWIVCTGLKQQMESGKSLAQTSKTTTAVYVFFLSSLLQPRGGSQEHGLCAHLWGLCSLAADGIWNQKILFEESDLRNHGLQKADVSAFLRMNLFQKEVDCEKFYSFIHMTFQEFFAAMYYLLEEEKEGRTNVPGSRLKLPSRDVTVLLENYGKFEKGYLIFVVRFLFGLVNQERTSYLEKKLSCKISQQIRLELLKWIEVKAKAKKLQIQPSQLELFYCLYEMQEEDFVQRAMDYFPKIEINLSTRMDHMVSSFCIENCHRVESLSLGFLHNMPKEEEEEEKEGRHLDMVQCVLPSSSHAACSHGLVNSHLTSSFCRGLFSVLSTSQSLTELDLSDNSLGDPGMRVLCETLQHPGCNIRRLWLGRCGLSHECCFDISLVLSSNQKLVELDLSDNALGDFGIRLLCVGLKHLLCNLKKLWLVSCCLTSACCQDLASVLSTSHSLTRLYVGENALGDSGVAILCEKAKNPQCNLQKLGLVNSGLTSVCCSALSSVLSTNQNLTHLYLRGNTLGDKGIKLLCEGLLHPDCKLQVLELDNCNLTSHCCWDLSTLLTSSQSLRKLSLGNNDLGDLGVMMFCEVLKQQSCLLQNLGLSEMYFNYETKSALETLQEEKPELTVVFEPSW

Structure (SMILES)	IC50 [nM]
Cc1cc(C(F)(F)F)cc(O)c1-c1cc2c(nn1)N([C@@H]1CCCN(C)C1)C(C)C2 (mixture of isomers) [Example 30, 3-methyl-2-{6-methyl-7-[(3R)-1-methylpiperidin-3-yl]-6,7-dihydro-5H-pyrrolo[2,3-c]pyridazin-3-yl}-5-(trifluoromethyl)phenol]	14.4
CCN1[C@H]2CC[C@H](N3CCc4cc(-c5c(C)cc(C(F)(F)F)cc5O)nnc43)[C@@H]1CC2 (racemic) [Example 17, 2-{7-[(1S*, 2S*, 5R*)-8-ethyl-8-azabicyclo[3.2.1]octan-2-yl]-6,7-dihydro-5H-pyrrolo[2,3-c]pyridazin-3-yl}-3-methyl-5-(trifluoromethyl)phenol]	9.47
Cc1cc(C(F)(F)F)cc(O)c1-c1cc2cnn(C3CCCN(C)C3)c2nn1 (racemic) [Example 31, 3-methyl-2-[1-(1-methylpiperidin-3-yl)-1H-pyrazolo[3,4-c]pyridazin-5-yl]-5-(trifluoromethyl)phenol]	413
Cc1cc(C(F)(F)F)cc(O)c1-c1cc2c(nn1)N([C@@H]1CC[C@@H]3CC[C@H]1N3C)CC2 (single isomer, unassigned) [Example 19, 3-methyl-2-{7-[(1R,2R,5S or 1,2S,5R)-8-methyl-8-azabicyclo[3.2.1]octan-2-yl]-6,7-dihydro-5H-pyrrolo[2,3-c]pyridazin-3-yl}-5-(trifluoromethyl)phenol]	9.99
Cc1cc(C(F)(F)F)cc(O)c1-c1cc2c(nn1)N([C@@H]1CCCN(C)C1)C[C@H]2C (single isomer, unassigned) [Example 33, 3-methyl-2-{(5S or 5R)-5-methyl-7-[(3R)-1-methylpiperidin-3-yl]-6,7-dihydro-5H-pyrrolo[2,3-c]pyridazin-3-yl}-5-(trifluoromethyl)phenol]	10
Cc1cc(C(F)(F)F)cc(O)c1-c1cc2c(nn1)N([C@@H]1CCCN(C)C1)C[C@@H]2C (single isomer, unassigned) [Example 34, 3-methyl-2-{(5R or 5S)-5-methyl-7-[(3R)-1-methylpiperidin-3-yl]-6,7-dihydro-5H-pyrrolo[2,3-c]pyridazin-3-yl}-5-(trifluoromethyl)phenol]	9.07
CCN1[C@H]2CC[C@@H]1[C@H](n1cc(C)c3cc(-c4c(C)cc(C(F)(F)F)cc4O)nnc31)CC2 (single isomer, unassigned) [Example 76, 2-{7-[(1R,2R,5S or 1S,2S,5R)-8-ethyl-8-azabicyclo[3.2.1]octan-2-yl]-5-methyl-7H-pyrrolo[2,3-c]pyridazin-3-yl}-3-methyl-5-(trifluoromethyl)phenol]	10.1
Cc1cc(C(F)(F)F)cc(O)c1-c1cc2c(nn1)N([C@@H]1CCCN(C)C1)CC2 [Example 1, 3-methyl-2-{7-[(3R)-1-methylpiperidin-3-yl]-6,7-dihydro-5H-pyrrolo[2,3-c]pyridazin-3-yl}-5-(trifluoromethyl)phenol]	5.27
Cc1cc(C(F)(F)F)cc(O)c1-c1cc2ccn([C@@H]3CCCN(C)C3)c2nn1 [Example 2, 3-methyl-2-{7-[(3R)-1-methylpiperidin-3-yl]-7H-pyrrolo[2,3-c]pyridazin-3-yl}-5-(trifluoromethyl)phenol]	5.26
Cc1cc(C(F)(F)F)cc(O)c1-c1cc2c(Cl)cn([C@H]3C[C@@](C)(O)C3)c2nn1 [Example 6, 2-{5-chloro-7-[(1s,3s)-3-hydroxy-3-methylcyclobutyl]-7H-pyrrolo[2,3-c]pyridazin-3-yl}-3-methyl-5-(trifluoromethyl)phenol]	26
Cc1cc(C(F)(F)F)cc(O)c1-c1cc2ccn([C@H]3C[C@@](C)(CO)C3)c2nn1 [Example 7, 2-{7-[(1s,3s)-3-(hydroxymethyl)-3-methylcyclobutyl]-7H-pyrrolo[2,3-c]pyridazin-3-yl}-3-methyl-5-(trifluoromethyl)phenol]	67.6
Cc1cc(C(F)(F)F)cc(O)c1-c1cc2c(C)cn(C34CCCC(O)(C3)C4)c2nn1 [Example 8, 5-{3-[2-hydroxy-6-methyl-4-(trifluoromethyl)phenyl]-5-methyl-7H-pyrrolo[2,3-c]pyridazin-7-yl}bicyclo[3.1.1]heptan-1-ol]	15.4
Cc1cc(Cl)cc(O)c1-c1cc2c(C)cn([C@H]3C[C@@](C)(O)C3)c2nn1 [Example 9, 5-chloro-2-{7-[(1s,3s)-3-hydroxy-3-methylcyclobutyl]-5-methyl-7H-pyrrolo[2,3-c]pyridazin-3-yl}-3-methylphenol]	13.2
CCN1CCC[C@@H](N2CCc3cc(-c4c(C)cc(C(F)(F)F)cc4O)nnc32)C1 [Example 11, 2-{7-[(3R)-1-ethylpiperidin-3-yl]-6,7-dihydro-5H-pyrrolo[2,3-c]pyridazin-3-yl}-3-methyl-5-(trifluoromethyl)phenol]	7.32
Cc1cc(C(F)(F)F)cc(O)c1-c1cc2c3c(n([C@H]4C[C@@](C)(O)C4)c2nn1)CCC3 [Example 12, 2-{8-[(1s,3s)-3-hydroxy-3-methylcyclobutyl]-5,6,7,8-tetrahydrocyclopenta[4,5]pyrrolo[2,3-c]pyridazin-3-yl}-3-methyl-5-(trifluoromethyl)phenol]	25.9
Cc1cc(OC(F)F)cc(O)c1-c1cc2c(C)cn([C@H]3C[C@@](C)(O)C3)c2nn1 [Example 13, 5-(difluoromethoxy)-2-{7-[(1s,3s)-3-hydroxy-3-methylcyclobutyl]-5-methyl-7H-pyrrolo[2,3-c]pyridazin-3-yl}-3-methylphenol]	37.6
CCCN1CCC[C@@H](N2CCc3cc(-c4c(C)cc(C(F)(F)F)cc4O)nnc32)C1 [Example 14, 3-methyl-2-{7-[(3R)-1-propylpiperidin-3-yl]-6,7-dihydro-5H-pyrrolo[2,3-c]pyridazin-3-yl}-5-(trifluoromethyl)phenol]	7.87

Continued, values first:

IC50 [nM]	Structure (SMILES)
57.2	Cc1cc(C(F)(F)F)cc(O)c1-c1cc2c(nn1)N([C@@H]1CCCN(C3CCOC3)C1)CC2 (mixture of isomers) [Example 57, 3-methyl-2-{7-[(3R)-1-(tetrahydrofuran-3-yl)piperidin-3-yl]-6,7-dihydro-5H-pyrrolo[2,3-c]pyridazin-3-yl}-5-(trifluoromethyl)phenol]
74	Cc1cc(C(F)(F)F)cc(O)c1-c1cc2ccn([C@H]3C[C@@](C)(O)[C@H]3C)c2nn1 (racemic) [Example 42, 2-{7-[(1S*,2S*,3R*)-3-hydroxy-2,3-dimethylcyclobutyl]-7H-pyrrolo[2,3-c]pyridazin-3-yl}-3-methyl-5-(trifluoromethyl)phenol]
65.3	Cc1cc(C(F)(F)F)cc(O)c1-c1cc2c(nn1)N([C@H]1C[C@@](C)(O)C1)CC2C (mixture of isomers) [Example 85, 2-{7-[(1s,3s)-3-hydroxy-3-methylcyclobutyl]-5-methyl-6,7-dihydro-5H-pyrrolo[2,3-c]pyridazin-3-yl}-3-methyl-5-(trifluoromethyl)phenol]
141	Cc1cc(C(F)(F)F)cc(O)c1-c1cc2c(nn1)N([C@H]1C[C@@](C)(O)C1)C(C)C2 (mixture of isomers) [Example 86, 2-{7-[(1s,3s)-3-hydroxy-3-methylcyclobutyl]-6-methyl-6,7-dihydro-5H-pyrrolo[2,3-c]pyridazin-3-yl}-3-methyl-5-(trifluoromethyl)phenol]
30.1	Cc1cc(C(F)(F)F)cc(O)c1-c1ccc(CC2CCCN(C)C2)nn1 (racemic) [Example 93, 3-methyl-2-{6-[(1-methylpiperidin-3-yl)methyl]pyridazin-3-yl}-5-(trifluoromethyl)phenol]
79.6	Cc1cc(C(F)(F)F)cc(O)c1-c1cc2c(nn1)c(C1CCCN(C)C1)cn2C (racemic) [Example 94, 3-methyl-2-[5-methyl-7-(1-methylpiperidin-3-yl)-5H-pyrrolo[3,2-c]pyridazin-3-yl]-5-(trifluoromethyl)phenol]
19.7	Cc1cc(C(F)(F)F)cc(O)c1-c1cc2scc(C3CCCN(C)C3)c2nn1 (racemic) [Example 95, 3-methyl-2-[7-(1-methylpiperidin-3-yl)thieno[3,2-c]pyridazin-3-yl]-5-(trifluoromethyl)phenol]
23.8	Cc1cc(C(F)(F)F)cc(O)c1-c1cc2c(nn1)N([C@@H]1CCCN(C)C1)[C@H](C)C2 (single isomer, unassigned) [Example 55, 3-methyl-2-{(6R or 6S)-6-methyl-7-[(3R)-1-methylpiperidin-3-yl]-6,7-dihydro-5H-pyrrolo[2,3-c]pyridazin-3-yl}-5-(trifluoromethyl)phenol]
11.5	Cc1cc(C(F)(F)F)cc(O)c1-c1cc2cccc([C@@H]3CCCN(C)C3)c2nn1 (single isomer, unassigned) [Example 96, 3-methyl-2-{8-[(3R or 3S)-1-methylpiperidin-3-yl]cinnolin-3-yl}-5-(trifluoromethyl)phenol]
8.33	CCN1CCC[C@@H](c2cccc3cc(-c4c(C)cc(C(F)(F)F)cc4O)nnc23)C1 (single isomer, unassigned) [Example 97, 2-{8-[(3R or 3S)-1-ethylpiperidin-3-yl]cinnolin-3-yl}-3-methyl-5-(trifluoromethyl)phenol]
13.8	Cc1cc(C(F)(F)F)cc(O)c1-c1cc2c(nn1)N(c1ncc(F)cn1)[C@@H]1CCO[C@H]21 (single isomer, unassigned) [Example 98, 2-[(4bR,7aR or 4bS,7aS)-8-(5-fluoropyrimidin-2-yl)-6,7,7a,8-tetrahydro-4bH-furo[2′,3′:4,5]pyrrolo[2,3-c]pyridazin-3-yl]-3-methyl-5-(trifluoromethyl)phenol]
